# Reference: patent US20230382871A1, “CSF1R KINASE INHIBITOR AND USE THEREOF” (SHANGHAI INSTITUTE OF MATERIA MEDICA, CHINESE ACADEMY OF …, priority 2020, published 2023)
# “And” between values parts separate entries of the source, which are not always exact repeats. Identical values can stand only once.
# Tests used:
# [1] = system: phosphorylated CSF1R (p-CSF1R) in BMDM; experiment: Western blot of CSF1-stimulated CSF1R phosphorylation in BMDM; type: cell-based, mouse
# Description: Bone marrow-derived macrophages, after induction by CSF1 for 5 to 7 days, were centrifuged to remove the previous medium. 2 mL of a serum-free medium was added. […] CSF1 factor was added at a final concentration of 50 ng/mL for stimulation for 15 minutes. The culture medium was discarded, and cells were washed three times with pre-cooled PBS. Then, the cells were lysed by adding 1×SDS gel loading buffer. The cell lysates were heated in a boiling water bath for 15 min, and then stored at −20° C.
# A protein sample as described above was subjected to SDS-PAGE electrophoresis. Then, the protein was transferred to a nitrocellulose membrane using a semi-dry electrotransfer system. The nitrocellulose membrane was placed in a blocking solution (5% skim milk in TBS-T) and incubated for 2 h at room temperature. Then, the membrane was allowed to react with a primary antibody overnight at 4° C. After the membrane was washed with TBS-T for three times with 15 min each time, the membrane was allowed to react in a secondary antibody dilution at room temperature for 1-2 h. […]
# The inhibitory effect of Compound I on CSF1R and its signaling pathway in mouse primary macrophages was detected by immunoblotting assays. Each experiment was independently repeated three times and all experimental results were quantified. […]
# [2] = system: human glioma U87MG subcutaneous xenografts; experiment: Human glioma U87MG subcutaneous xenografts in nude mice; type: in vivo, BALB/c nude mice; conditions: for Body Weight (g) D 21 / RTV (mean ± SD) / TV (mm^3, mean ± SD) D 21: D 21; for T/C (%): Day 21
# Description: BALB/c nude female mice of 3-4 weeks old were used, and were provided by […] […] OF MATERIA MEDICA, CHINESE ACADEMY OF SCIENCES.
# Human glioma U87MG cells were subcutaneously inoculated into the right axillary fossa of a nude mouse (5×10^6 cells/mouse). After a xenograft was formed, the tumor was transferred to a nude mouse for 1 passage.
# Tumor tissues at the vigorous growth stage were removed and cut into pieces of approximately 1.5 mm^3. The tumor fragments were inoculated subcutaneously into the right axillary fossa of nude mice under aseptic conditions. The diameters of the subcutaneous xenografts in nude mice were measured with a vernier caliper. The animals were randomly grouped after the xenografts reached an average volume of about 90 mm^3. Compound I was administered orally at doses of 40 mg/kg, 20 mg/kg and 10 mg/kg twice a day for 21 consecutive days. An equal volume of a blank preparation was administered orally twice a day for 21 consecutive days. The positive control drug Axitinib was administered orally at a dose of 40 mg/kg group twice a day for 21 consecutive days. An equal volume of water for injection was administered to the animals in the solvent group. Throughout the experiment, the diameters of the xenografts were measured twice a week and the mice were weighed at the same time. The tumor volume (TV) was calculated as TV=½×a×b^2, where “a” and “b” denote the length and width of a tumor, respectively. The relative tumor volume (RTV) was calculated from the measurement results with the calculation formula RTV=Vt/V0, in which V0 is the tumor volume measured upon administration after grouping (i.e., D0) and Vt is the tumor volume from each measurement. The evaluation index of anti-tumor activity is the relative tumor proliferation rate T/C (%), which is calculated as T/C (%)=(TRTV/CRTV)×100%, in which TRTV denotes the RTV from the treatment group and CRTV denotes the RTV from solvent group.
# [3] = system: M2-type macrophage marker CD206 in HT-29 tumor tissues; experiment: Immunohistochemistry of M2-type macrophage marker CD206 in HT-29 tumor tissues; type: in vivo, nude mice; conditions: Compound I 5, 10, 20 mg/kg; Axitinib 40 mg/kg
# Description: At the end of the in vivo experiments, U87MG and HT-29 xenografts in nude mice were removed and fixed with […] to prepare paraffin sections.
# Expression of individual proteins was assessed using multiplicative quick score method (MQS). This evaluation method takes into account both the staining intensity and the staining range. The method estimates the proportion of positive cells and gives a range score from 1 to 6 (1=1%-4%; 2=5%-19%; 3=20%-39%; 4=40%-59%; 5=60%-79%; 6=80%-100%). The average intensity score of positive stained cells was 0 to 3 (0=no staining; 1=weak staining; 2=moderate staining; 3=strong staining). The total score a (minimum 0 and maximum 18) is then calculated by multiplying the range score by the intensity score.
# For detecting the changes in the macrophage marker F4/80 and M2-type macrophage marker CD206 in the HT-29 tumor tissues, quantitative analysis (solvent: n=12, blank preparation: n=6, Compound I (5 mg/kg): n=6, Compound I (10 mg/kg): n=6, Compound I (20 mg/kg): n=6, Axitinib: n=6) was performed on all sections and the experimental data were analyzed for significant differences using the t-test. * denotes p<0.05 as compared with the blank preparation group, ** denotes p<0.01 as compared with the blank preparation group, and denotes p<0.001 as compared with the blank preparation group.
# [4] = system: human glioma U87MG brain in situ transplantation; experiment: Survival in U87MG brain in situ transplantation model in nude mice; type: in vivo, BALB/cA nude mice; conditions: for ILS (%), Increase in Life Span: vs solvent group MST
# [5] = system: solid tumors, such as brain gliomas; experiment: Clinical trial, preliminary efficacy; type: in vivo; conditions: particularly high-grade brain gliomas, data not shown
# [6] = 40 mg/kg, implantation day as Day 0
smiles,measurement,setting,value
Cc1cc(NC(=O)c2cccc3cc(-c4cccc5[nH]nc(N)c45)ccc23)ccc1F [Compound I],inhibition at 0.1 µM,"[1]; Mus musculus, 100 nM, 2 h, CSF1 50 ng/mL 15 min",57.3%
same,CSF1 stimulated phosphorylation levels of CSF1R and AKT,[1]; immunoblotting,inhibited in a dose-dependent manner
same,Body Weight (g) D 0,[2]; 10 mg/kg bid × 21 po,15.7 g
same,"TV (mm^3, mean ± SD) D 0",[2]; 10 mg/kg bid × 21 po,87 ± 17 mm^3
same,Body Weight (g) D 21,[2]; 10 mg/kg bid × 21 po,17.3 g
same,RTV (mean ± SD),[2]; 10 mg/kg bid × 21 po,3.57 ± 1.06
same,"TV (mm^3, mean ± SD) D 21",[2]; 10 mg/kg bid × 21 po,302 ± 72 mm^3
same,T/C (%),[2]; 10 mg/kg bid × 21 po,11.91%
same,Body Weight (g) D 0,[2]; 20 mg/kg bid × 21 po,16.7 g
same,"TV (mm^3, mean ± SD) D 0",[2]; 20 mg/kg bid × 21 po,87 ± 17 mm^3
same,Body Weight (g) D 21,[2]; 20 mg/kg bid × 21 po,16.9 g
same,RTV (mean ± SD),[2]; 20 mg/kg bid × 21 po,2.44 ± 1.58
same,"TV (mm^3, mean ± SD) D 21",[2]; 20 mg/kg bid × 21 po,200 ± 100 mm^3
same,T/C (%),[2]; 20 mg/kg bid × 21 po,8.14%
same,Body Weight (g) D 0,[2]; 40 mg/kg bid × 21 po,17.0 g
same,"TV (mm^3, mean ± SD) D 0",[2]; 40 mg/kg bid × 21 po,87 ± 15 mm^3
same,Body Weight (g) D 21,[2]; 40 mg/kg bid × 21 po,17.6 g
same,RTV (mean ± SD),[2]; 40 mg/kg bid × 21 po,2.93 ± 0.50
same,"TV (mm^3, mean ± SD) D 21",[2]; 40 mg/kg bid × 21 po,251 ± 37 mm^3
same,T/C (%),[2]; 40 mg/kg bid × 21 po,9.77%
same,"expression of CD206, HT-29 tumor tissue",[3],inhibited the expression of F4/80 and CD206 in a dose-dependent manner
same,"Median survival time, MST",[4]; 20 mg/kg po twice a day from Day 8,54 days and 54.0 days
same,"ILS (%), Increase in Life Span",[4]; 20 mg/kg,17.39%
same,"Median survival time, MST",[4]; 40 mg/kg po twice a day from Day 8,58.5 days
same,day of first death in the group,[4]; [6],43 days
same,day of last death in the group,[4]; [6],75 days
same,"ILS (%), Increase in Life Span",[4]; 40 mg/kg,27.17%
same,preliminary efficacy in clinical trial,[5],good therapeutic efficacy
